We go through eleven compounds from ChEMBL document CHEMBL3217508, “Synthesis and antifungal activity of the novel triazole compounds” (2013).

Values after ≈ are worked out from the molar mass of the structure shown. Some results are limits rather than exact numbers.

What is called MIC80 is the lowest concentration that inhibits either 80% of growth or 80% of the strains tested, depending on the study.

Format in all cases: functional
Assay [1] deals with Trichophyton rubrum. Description: Antifungal activity against Trichophyton rubrum assessed as growth inhibition by microbroth dilution method. In general terms: Broth dilution looks for growth in wells or tubes with falling amounts of substance.
The test system of assay [2] is Candida albicans. Description: Antifungal activity against Candida albicans Y0109 assessed as growth inhibition after 24 hrs by microbroth dilution method. The conditions noted are these: Y0109, 24 h.
Assay [3] relates to Aspergillus fumigatus. Description: Antifungal activity against Aspergillus fumigatus assessed as growth inhibition by microbroth dilution method.
The test system of assay [4] is Cryptococcus neoformans. Description: Antifungal activity against Cryptococcus neoformans assessed as growth inhibition after 72 hrs by microbroth dilution method.
The test system of assay [5] is Kluyveromyces marxianus. Description: Antifungal activity against Candida kefyr assessed as growth inhibition by microbroth dilution method.
For assay [6], the system named is Candida tropicalis. Description: Antifungal activity against Candida tropicalis assessed as growth inhibition by microbroth dilution method.
The subject of assay [7] is Candida parapsilosis. Description: Antifungal activity against Candida parapsilosis assessed as growth inhibition by microbroth dilution method. The conditions noted are these: Lodderomyces parapsilosis.
Assay [8] deals with Candida albicans. Description: Antifungal activity against Candida albicans SC5314 assessed as growth inhibition after 24 hrs by microbroth dilution method. The conditions noted are these: SC5314, 24 h.
Assay [9] relates to Kluyveromyces marxianus. Description: Ratio of fluconazole MIC80 to compound MIC80 against Candida kefyr.
The test system of assay [10] is Trichophyton rubrum. Description: Ratio of fluconazole MIC80 to compound MIC80 against Trichophyton rubrum.
The subject of assay [11] is Candida albicans. Description: Ratio of fluconazole MIC80 to compound MIC80 against Candida albicans SC5314.

Turning to `CN(C/C=C/C#CC(C)(C)C)Cc1cccc2ccccc12` [TERBINAFINE], the MIC80 in [1] is below 0.125 µg/mL; in assay [2] it was 2 µg/mL (≈ 6.86 µM); in [3], 0.25 µg/mL; in assay [4] it was 8 µg/mL (≈ 27.5 µM); in [5] it was 0.0625 µg/mL; in assay [6] it was below 0.125 µg/mL. Further, the MIC80 in [7] is below 0.125 µg/mL; in assay [8], 16 µg/mL (≈ 54.9 µM).

Turning to `C[C@@H]1[C@H](O)[C@@H](C)/C=C/C=C/C=C/C=C/C=C/C=C/C=C/[C@H](O[C@@H]2O[C@H](C)[C@@H](O)[C@H](N)[C@@H]2O)C[C@@H]2O[C@](O)(C[C@@H](O)C[C@@H](O)[C@H](O)CC[C@@H](O)C[C@@H](O)CC(=O)O[C@H]1C)C[C@H](O)[C@H]2C(=O)O` [AMPHOTERICIN B], the MIC80 in assay [1] amounted to 0.125 µg/mL; in [2], 4 µg/mL (≈ 4.33 µM); in assay [3], 32 µg/mL; in assay [4], 4 µg/mL (≈ 4.33 µM); in assay [5] it was 0.25 µg/mL; in [6] it was 0.25 µg/mL. The MIC80 in [7] turned out to be 1 µg/mL; in assay [8] it was 8 µg/mL (≈ 8.66 µM).

`C[C@@H](c1ncncc1F)[C@](O)(Cn1cncn1)c1ccc(F)cc1F` [VORICONAZOLE]: the MIC80 is below 0.125 µg/mL in assay [1]; below 0.125 µg/mL in [2]; below 0.125 µg/mL in assay [3]; below 0.125 µg/mL in [4]; 0.0039 µg/mL in [5]; below 0.125 µg/mL in assay [6]. The MIC80 in assay [7] stood at 0.25 µg/mL; in [8] it was 32 µg/mL (≈ 91.6 µM).

`CN(Cc1cn(Cc2cccc(C#N)c2)nn1)CC(O)(Cn1cncn1)c1ccc(F)cc1F` (stereo unspecified): the MIC80 is 1 µg/mL in assay [1]; 0.5 µg/mL (≈ 1.08 µM) in assay [2]; above 64 µg/mL in [3]; 4 µg/mL (≈ 8.61 µM) in [4]; 1 µg/mL in assay [5]; 1 µg/mL in assay [6]. For the same compound, the MIC80 in assay [7] worked out at 0.25 µg/mL; in [8], 1 µg/mL (≈ 2.15 µM).

On to `CN(Cc1cn(Cc2cccc(F)c2)nn1)CC(O)(Cn1cncn1)c1ccc(F)cc1F` (stereo unspecified), for which the MIC80 in assay [1] is 16 µg/mL; in assay [2] it was 0.25 µg/mL (≈ 0.546 µM); in assay [3], above 64 µg/mL; in assay [4], 2 µg/mL (≈ 4.37 µM); in [5], 64 µg/mL; in assay [6] it was 0.5 µg/mL. For the same compound, the MIC80 in [7] amounted to 0.5 µg/mL; in assay [8] it was 0.25 µg/mL (≈ 0.546 µM).

As for `CN(Cc1cn(Cc2ccc(Br)cc2)nn1)CC(O)(Cn1cncn1)c1ccc(F)cc1F` (stereo unspecified), the MIC80 is 4 µg/mL in assay [1]; below 0.125 µg/mL in [2]; above 64 µg/mL in [3]; 1 µg/mL (≈ 1.93 µM) in [4]; 1 µg/mL in [5]; 0.25 µg/mL in [6]. In addition, the MIC80 stood at 0.25 µg/mL in assay [7] and 0.25 µg/mL (≈ 0.482 µM) in assay [8].

On to `CN(Cc1cn(Cc2ccc(Cl)cc2)nn1)CC(O)(Cn1cncn1)c1ccc(F)cc1F` (stereo unspecified), for which the MIC80 in assay [1] was 4 µg/mL; in assay [2] it was below 0.125 µg/mL; in assay [3] it was above 64 µg/mL; in [4], 1 µg/mL (≈ 2.11 µM); in assay [5] it was 0.25 µg/mL; in assay [6], 1 µg/mL. In addition, the MIC80 came to 0.25 µg/mL in assay [7] and 0.25 µg/mL (≈ 0.528 µM) in assay [8].

For the compound `CN(Cc1cn(Cc2ccc(C#N)cc2)nn1)CC(O)(Cn1cncn1)c1ccc(F)cc1F` (stereo unspecified), the values for the Ratio in assay [9], in assay [10] and in [11] were 16, 32 and 8, respectively. In addition, the MIC80 was 0.0625 µg/mL in [1]; below 0.0125 µg/mL in assay [2]; above 64 µg/mL in assay [3]; 0.25 µg/mL (≈ 0.538 µM) in assay [4]; 0.0625 µg/mL in assay [5]; 0.0625 µg/mL in [6]. The MIC80 amounted to 0.0156 µg/mL in assay [7] and 0.0625 µg/mL (≈ 0.135 µM) in assay [8].

Turning to `CCC(C)n1ncn(-c2ccc(N3CCN(c4ccc(OCC5COC(Cn6cncn6)(c6ccc(Cl)cc6Cl)O5)cc4)CC3)cc2)c1=O` (stereo unspecified) [ITRACONAZOLE], the MIC80 is 0.0625 µg/mL in [1]; 0.0625 µg/mL (≈ 0.0886 µM) in [2]; 2 µg/mL in assay [3]; 0.125 µg/mL (≈ 0.177 µM) in assay [4]; 0.0625 µg/mL in assay [5]; below 0.0625 µg/mL in assay [6]. In addition, the MIC80 in [7] is 0.0625 µg/mL; in assay [8], below 0.0625 µg/mL.

With `CC(=O)N1CCN(c2ccc(OCC3COC(Cn4ccnc4)(c4ccc(Cl)cc4Cl)O3)cc2)CC1` (stereo unspecified) [KETOCONAZOLE], the MIC80 in [1] is below 0.125 µg/mL; in assay [2], below 0.125 µg/mL; in [3], 0.125 µg/mL; in assay [4], 0.5 µg/mL (≈ 0.941 µM); in assay [5], 0.0625 µg/mL; in assay [6], below 0.125 µg/mL. Further, the MIC80 in assay [7] and in assay [8] was below 0.125 µg/mL each time.

As to `CN(Cc1cn(Cc2ccccc2[N+](=O)[O-])nn1)CC(O)(Cn1cncn1)c1ccc(F)cc1F` (stereo unspecified), the MIC80 in assay [1] was 4 µg/mL; in [2], below 0.125 µg/mL; in assay [3], above 64 µg/mL; in assay [4], 1 µg/mL (≈ 2.06 µM); in assay [5], 0.25 µg/mL; in [6], 1 µg/mL. Also, the MIC80 in assay [7] amounted to 0.25 µg/mL; in [8], 0.25 µg/mL (≈ 0.516 µM).
